The test system of this assay is women with a history of mild or sever dysmenorrhea. Kind of assay: Clinical study of tampon with CBD (randomized, controlled, crossover, two menstrual cycles; questionnaire and diary data). The class given is in vivo. To be noted: tests performed by the inventors; cannabidiol provided on the tampon. As for the experimental part: The following study was performed to assess the safety and efficacy of a tampon covered with CBD oil.
Patients and Samples. A total of 130 women aged between 18 and 42 with a history of mild or sever dysmenorrhea were recruited for this study.
Study design. […] Patients were divided into two groups. One group used a hemp, CBD-infused tampon. The tampon contained […] of CBD oil. The tampon consisted of highly absorbent organic hemp fibers and organic hemp overwrap, organic cotton stitching thread and organic cotton removal cord, and a layer of CBD oil sprayed on top of the hemp overwrap. A second group used a standard off-the-shelf tampon product as a control. The off-the-shelf tampon consisted of blended rayon and viscose fibers with a non-woven rayon overwrap, cotton stitching thread and removal cord.
In a first visit, a patient underwent a gynecological exam and had blood drawn to test for STIs. If the patient fit inclusion criteria, in a second visit, the patient was divided into an experimental group or control group. A control test for levels of CBD in the bloodstream was performed on all participants and the results recorded. All participants were given diaries and instructed to write a detailed account of the comfort of tampon insertion and removal, comfort of wear, and levels of pain experienced. […]

Turning to `C=C(C)[C@@H]1CCC(C)=C[C@H]1c1c(O)cc(CCCCC)cc1O` [cannabidiol], the “vaginal delivery from the tampon to treat symptoms associated with menstruation” value is reported as “can be delivered vaginally”.

The values are drawn from patent US20210220184A1, “ABSORBENT TAMPON FOR TREATMENT OF MENSTRUAL SYMPTOMS” (Anne's Day Ltd, priority 2018, published 2021).
